Laboratory results: US7763607B2, “Pharmaceutical compositions comprising CBx cannabinoid receptor modulators and potassium channel modulators” (Solvay Pharmaceuticals GmbH, priority 2006, dated 2010)
Read-outs that look alike come from different tables or passages of the source.

Columns and labels:
[1] = tested on: rat perifused pancreatic islets; assay: KATP opening effects through insulin secretion in rat perifused pancreatic islets; format: cell-based; settings: insulin secretion at 11 mM glucose; for % Inhibition 0-30: 0-30 minutes; for % Inhibition 30-60: 30-60 minutes
Description: The animals were maintained on a 12 h light-dark cycle (lights on 06.00-18.00 h) with free access to standard rodent diet (B&K Universal Ltd standard rat and mouse diet (BK 001P), Beekay Feeds, B&K Universal Ltd, Hull, East Riding of Yorkshire) and tap water. The rats were conditioned to this environment for at least one week before experimentation.
Experimental procedures: After the rats were sacrificed, the branch of the bile duct leading to the liver and the duodenal end of the duct in the pancreas were clamped and the pancreas distended by injection of ice-cold 0.9 mg/ml collagenase solution into the bile duct. […] Following incubation, 10 ml of cold buffer was added and the suspension shaken vigorously by hand for 1 min. The islets were allowed to settle for 5 min on ice and washed three times using ice-cold buffer. Well formed and good sized islets from 3 rats were hand-picked (under a low power microscope) and pooled and a final selection of islet transferred to the perifusion apparatus.
Two experiments were performed in parallel in two identical, independent sets of perifusion apparatus each consisting of sufficient number of chambers. Each chamber was loaded with 20 hand-picked islets. Islets were perifused for an initial 30 min period in media containing 4 mM glucose. Perifusate was then collected at 2 min intervals for the remainder of the experiment. […] Perifusate fractions were stored at −75° C. until required for insulin assay. Insulin content of fractions were assayed using a 96-well ELISA assay (Mercodia). Initial insulin assays were performed in triplicate on three pooled fractions from each chamber.
Data were initially expressed as a simple mean of the three experiments for insulin secretion (pg/islet/min) and multiple t-tests (against the corresponding vehicle time period) used to determine potential significant effects of treatments. Alternatively, data were also calculated as a % vehicle effect for each experimental day.

[2] = target: rat SUR2 (Rattus norvegicus, UniProt Q63563); assay: In vitro binding affinity to rodent KATP channels: SUR2 (COS cell membranes); settings: rat SUR2 transiently expressed in COS cells; isoform (2A/2B) not given
Description: Similar to SUR1 (see above) competitive binding experiments were performed to characterize the affinity of the test compounds for the binding sites for sulfonylureas and KCOs on rat SUR2A. The affinity for the KCO site on SUR2A was assessed by displacement of [^3H]P1075 (see Schwanstecher et al., 1998; Dörschner H. et al. Mol. Pharmacol. 55 (1999) 1060-1066 (Dörschner et al., 1999)). The affinity of [^3H]glibenclamide for the […] SUR2 isoforms, however, is too weak to allow direct detection of binding using filtration assays. Therefore, two strategies can be used to detect binding to the sulfonylurea site on SUR2A. First, binding can be detected indirectly through allosteric displacement of [^3H]P1075 (Dörschner et al., 1999). Second, a mutated SUR2A (SUR2AY1205S, see above) with increased affinity for [^3H]glibenclamide allowing direct displacement of this tracer can be used.
Membranes from COS-cells transiently expressing rat SUR2A were incubated in the presence of the radioligands with increasing concentrations of test compounds as described above. […] For each test compound […] displacement curves were measured (displacement of [^3H]P1075 from the rat isoform of the wild type receptor and displacement of [^3H]glibenclamide from the rat isoform of SUR2AY1205S). Per curve 9-15 distinct concentrations were tested covering the relevant range. […]

[3] = tested on: glucose-stimulated insulin release; assay: Inhibition of glucose-stimulated insulin release (potency comparison in text); settings: relative to diazoxide
[4] = target: T1, hamster SUR1 (Cricetus cricetus, UniProt Q09427); assay: biochemical; format: binding
T1 construct: expressed in transfected cells; host or cells: COS-1 cells (transient, pcDNA vector), membranes
Description: Competitive binding experiments were performed to characterize the affinity of the test compounds for the binding sites for sulfonylureas and KATP channel openers (KCOs) on hamster SUR1. To assess the affinity for the sulfonylurea site membranes from COS-cells transiently expressing hamster SUR1 were incubated in the presence of [^3H]glibenclamide with increasing concentrations of test compounds. […] Per curve 9-15 distinct concentrations were tested covering the relevant range. All measurements were repeated at least 5 times in independent experiments.
[^3H]glibenclamide (specific activity 51 Ci mmol^−1 was obtained from NEN (Dreieich, Germany). If suitable, stock solutions were prepared in dimethylsulfoxide with a final solvent concentration in the media below 1%.
SUR- or Kir6.x isoforms were used either subcloned in the pcDNA (hamster SUR1, mouse Kir6.2) or pCMV vector (rat SUR2A, SUR2B).
Rodent SUR-isoforms and KATP channels were transiently expressed in COS-1 cells as described in the literature. […]
The inhibition constant (Ki value) of the test substances was calculated from the respective IC50 value and was stated as the negative logarithmic value thereof (pKi).

T1 sequence (Q09427 whole entry): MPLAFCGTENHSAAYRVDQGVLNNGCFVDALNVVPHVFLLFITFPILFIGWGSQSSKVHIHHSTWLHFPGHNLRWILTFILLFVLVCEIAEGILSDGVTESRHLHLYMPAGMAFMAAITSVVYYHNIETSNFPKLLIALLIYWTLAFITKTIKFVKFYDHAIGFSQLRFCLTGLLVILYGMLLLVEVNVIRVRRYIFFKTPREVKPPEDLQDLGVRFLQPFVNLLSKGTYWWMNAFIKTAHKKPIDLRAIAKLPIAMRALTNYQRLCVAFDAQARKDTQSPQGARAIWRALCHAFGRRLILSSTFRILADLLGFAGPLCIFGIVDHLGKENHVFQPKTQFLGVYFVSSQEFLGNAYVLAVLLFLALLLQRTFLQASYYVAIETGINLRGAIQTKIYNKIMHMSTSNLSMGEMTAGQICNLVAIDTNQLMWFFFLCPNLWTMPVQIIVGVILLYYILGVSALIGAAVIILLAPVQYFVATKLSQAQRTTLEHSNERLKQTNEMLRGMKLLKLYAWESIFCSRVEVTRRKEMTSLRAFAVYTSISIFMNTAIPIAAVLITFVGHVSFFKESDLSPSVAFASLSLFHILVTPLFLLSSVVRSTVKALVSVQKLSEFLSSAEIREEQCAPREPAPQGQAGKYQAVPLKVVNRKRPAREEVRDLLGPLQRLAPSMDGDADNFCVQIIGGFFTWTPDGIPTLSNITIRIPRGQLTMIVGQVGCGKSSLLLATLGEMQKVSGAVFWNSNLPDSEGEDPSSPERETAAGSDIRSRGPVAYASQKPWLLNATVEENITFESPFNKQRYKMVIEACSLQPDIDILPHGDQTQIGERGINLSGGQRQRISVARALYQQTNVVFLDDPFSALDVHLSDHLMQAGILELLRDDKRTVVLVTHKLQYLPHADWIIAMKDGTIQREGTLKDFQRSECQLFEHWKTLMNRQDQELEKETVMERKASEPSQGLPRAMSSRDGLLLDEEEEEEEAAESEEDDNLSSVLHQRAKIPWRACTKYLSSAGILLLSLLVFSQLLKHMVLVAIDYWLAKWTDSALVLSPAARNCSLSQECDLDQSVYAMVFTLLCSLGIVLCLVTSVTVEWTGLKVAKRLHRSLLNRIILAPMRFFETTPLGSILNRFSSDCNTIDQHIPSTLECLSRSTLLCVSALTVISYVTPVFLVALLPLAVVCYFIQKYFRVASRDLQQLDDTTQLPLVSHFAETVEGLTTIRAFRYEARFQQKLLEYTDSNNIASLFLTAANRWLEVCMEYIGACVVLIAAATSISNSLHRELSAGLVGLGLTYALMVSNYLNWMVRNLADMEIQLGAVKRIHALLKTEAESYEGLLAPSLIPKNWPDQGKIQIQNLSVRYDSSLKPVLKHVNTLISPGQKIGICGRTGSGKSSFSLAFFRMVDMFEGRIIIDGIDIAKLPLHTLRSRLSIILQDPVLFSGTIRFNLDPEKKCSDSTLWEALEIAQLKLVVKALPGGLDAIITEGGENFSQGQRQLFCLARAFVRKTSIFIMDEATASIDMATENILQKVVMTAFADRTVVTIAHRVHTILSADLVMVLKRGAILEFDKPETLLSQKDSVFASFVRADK
Sequence of rat SUR2 (Q63563 1-1503 Y1205S limits assumed, form open): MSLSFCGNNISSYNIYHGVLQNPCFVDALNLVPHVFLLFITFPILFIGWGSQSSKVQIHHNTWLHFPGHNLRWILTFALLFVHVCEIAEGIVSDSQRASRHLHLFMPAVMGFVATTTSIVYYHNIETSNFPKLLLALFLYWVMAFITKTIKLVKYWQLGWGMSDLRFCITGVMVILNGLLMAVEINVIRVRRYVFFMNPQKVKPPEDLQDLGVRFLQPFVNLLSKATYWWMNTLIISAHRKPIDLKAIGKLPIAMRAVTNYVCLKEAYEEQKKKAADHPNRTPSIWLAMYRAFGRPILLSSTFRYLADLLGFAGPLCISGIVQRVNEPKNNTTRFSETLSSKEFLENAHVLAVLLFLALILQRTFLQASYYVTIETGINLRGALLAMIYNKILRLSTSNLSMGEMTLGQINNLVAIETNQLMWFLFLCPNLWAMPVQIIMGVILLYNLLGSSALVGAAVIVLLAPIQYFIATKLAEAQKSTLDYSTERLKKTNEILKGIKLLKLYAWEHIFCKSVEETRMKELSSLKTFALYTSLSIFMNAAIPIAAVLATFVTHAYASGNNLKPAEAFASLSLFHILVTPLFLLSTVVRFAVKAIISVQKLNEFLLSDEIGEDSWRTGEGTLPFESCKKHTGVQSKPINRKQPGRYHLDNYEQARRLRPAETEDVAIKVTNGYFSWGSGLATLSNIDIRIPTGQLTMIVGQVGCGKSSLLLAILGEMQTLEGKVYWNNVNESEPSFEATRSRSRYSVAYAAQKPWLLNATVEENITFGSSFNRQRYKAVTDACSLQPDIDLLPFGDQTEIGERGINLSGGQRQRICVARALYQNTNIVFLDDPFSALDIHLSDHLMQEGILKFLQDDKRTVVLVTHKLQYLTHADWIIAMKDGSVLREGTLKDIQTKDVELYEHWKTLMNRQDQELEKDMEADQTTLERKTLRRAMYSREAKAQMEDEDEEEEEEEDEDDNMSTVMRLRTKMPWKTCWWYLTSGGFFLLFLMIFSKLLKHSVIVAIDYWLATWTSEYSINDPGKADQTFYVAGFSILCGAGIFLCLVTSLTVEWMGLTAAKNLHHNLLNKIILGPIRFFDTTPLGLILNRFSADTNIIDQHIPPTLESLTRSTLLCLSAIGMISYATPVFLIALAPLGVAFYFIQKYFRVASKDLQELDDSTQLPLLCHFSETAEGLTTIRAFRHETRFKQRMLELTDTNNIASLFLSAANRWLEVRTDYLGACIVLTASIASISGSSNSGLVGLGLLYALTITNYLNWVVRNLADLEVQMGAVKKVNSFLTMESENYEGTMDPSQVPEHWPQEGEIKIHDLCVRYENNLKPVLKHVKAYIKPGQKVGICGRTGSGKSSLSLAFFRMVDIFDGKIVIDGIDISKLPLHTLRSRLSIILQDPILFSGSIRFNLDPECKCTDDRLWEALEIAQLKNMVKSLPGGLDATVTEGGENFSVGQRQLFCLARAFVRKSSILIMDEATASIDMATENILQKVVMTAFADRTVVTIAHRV

Row | SMILES | % Inhibition 0-30 [1] [%] | % Inhibition 30-60 [1] [%] | also measured
1 | CSc1c(C(=O)NN2CCCCC2)nc(-c2ccccc2Cl)n1-c1ccc(Cl)cc1 [1-(4-Chloro-phenyl)-2-(2-chloro-phenyl)-5-methylsulfanyl-1H-imidazole-4-carboxylic acid piperidin-1-ylamide] | 56 | 36 | –
2 | CCCCC/C=C\C/C=C\C/C=C\C/C=C\CCCC(=O)OC(CO)CO [2-AG, Icosa-5,8,11,14-tetraenoic acid 2-hydroxy-1-hydroxymethyl-ethyl ester] | – | – | Affinity to SUR 2 [2]: 5.5
3 | CN(C)CCNC(=NS(=O)(=O)N1CCCCC1)N1CC(c2ccccc2)C(c2ccc(Cl)cc2)=N1 (centres unmarked) [Piperidin-1-sulfonic acid [3-(4-chloro-phenyl)-4-phenyl-4,5-dihydro-pyrazol-1-yl]-(2-dimethylamino-ethyl-amino)-methyleneamide] | 71 | 64 | –
4 | CN/C(=N\S(=O)(=O)N(C)C)N1CC(c2cccc(F)c2)C(c2ccc(Cl)cc2)=N1 (centres unmarked) [N-{[3-(4-Chloro-phenyl)-4-(3-fluoro-phenyl)-4,5-dihydro-pyrazol-1-yl]-methylamino-methylene}-N,N-dimethyl-sulfonamide] | 72 | 77 | –
5 | CN/C(=N\S(=O)(=O)c1ccc(C(F)(F)F)cc1)N1CC(c2cccnc2)C(c2ccc(Cl)cc2)=N1 (centres unmarked) [N-{[3-(4-Chloro-phenyl)-4-pyridin-3-yl-4,5-dihydro-pyrazol-1-yl]-methylamino-methylene}-4-trifluoromethyl-benzenesulfonamide] | 58 | 31 | –
6 | CNC(=NS(=O)(=O)N1CCCCC1)C1=NN(c2ccc(Cl)cc2)C(c2ccccc2)C1 (centres unmarked) [Piperdine-1-sulfonic acid [1-(4-chloro-phenyl)-5-phenyl-4,5-dihydro-1H-pyrazol-3-yl]-methylamino-methyleneamide] | 84 | 47 | –
7 | CC1(NC2=Nc3cc(Cl)sc3S(=O)(=O)N2)CC1 [NN-414] | – | – | times more potent than diazoxide to inhibit glucose-stimulated insulin release [3]: more than 100 times
8 | CC1=NS(=O)(=O)c2cc(Cl)ccc2N1 [Diazoxide, diazoxide] | – | – | Ki ([4]; example in text on SUR binding, subunit not stated, read-out: pKi (converted)): 158 µM
9 | CN/C(=N\S(=O)(=O)N1CCOCC1)N1CC(c2ccccc2)C(c2ccc(Cl)cc2)=N1 (centres unmarked) [Mopholine-4-sulfonic acid [3-(4-chloro-phenyl)-4-phenyl-4,5-dihydro-pyrazol-1-yl]-methylamino-methyleneamide] | 83 | 91 | –
10 | CCCC(C)(C)c1ccc2c(c1)OC(C)(C)[C@@H]1CC=C(C)C[C@@H]21 [JW133, 3-(1,1-dimethyl-butyl)-6,6,9-trimethyl-6a,7,10,10a-tetrahydro-6H-benzo[c]chromene] | – | – | Ki ([4]; hamster SUR1 transiently expressed in COS cells, read-out: Affinity to SUR 1 (converted)): 1.26 µM; Affinity to SUR 2 [2]: 3.6
11 | Cc1c(C(=O)NN2CCCCC2)nn(-c2ccc(Cl)cc2Cl)c1-c1ccc(Cl)cc1 [Rimonabant, 5-(4-Chloro-phenyl)-1-(2,4-dichloro-phenyl)-4-methyl-1H-pyrazole-3-carboxylic acid piperidin-1-ylamide, reference compound] | 22 | 18 | –
12 | CCc1c(C(=O)NN2CCCCC2)nc(-c2ccccc2Cl)n1-c1ccc(Cl)cc1 [1-(4-Chloro-phenyl)-2-(2-chloro-phenyl)-5-ethyl-1H-imidazole-4-carboxylic acid piperidin-1-ylamide, reference compound] | 59 | 45 | –
13 | CON/C(=N\S(=O)(=O)c1ccc(Cl)cc1)N1C[C@H](c2cccc(F)c2)C(c2ccc(Cl)cc2)=N1 (stereo in doubt) [4-Chloro-N-{[3-(4-chloro-phenyl)-4-(3-fluoro-phenyl)-4,5-dihydro-pyrazol-1-yl]-methoxyamino-methylene}-benzenesulfonamide] | 90 | 95 | –
